Laboratory results: publication PMC7138307 (PLoS ONE, 2020)

Molecular target: T1, TAO2 (Mus musculus, UniProt Q6ZQ29)
T1 construct: from tissue; host or cells: mouse cortical brain lysate
T1 sequence (Q6ZQ29 1-1240): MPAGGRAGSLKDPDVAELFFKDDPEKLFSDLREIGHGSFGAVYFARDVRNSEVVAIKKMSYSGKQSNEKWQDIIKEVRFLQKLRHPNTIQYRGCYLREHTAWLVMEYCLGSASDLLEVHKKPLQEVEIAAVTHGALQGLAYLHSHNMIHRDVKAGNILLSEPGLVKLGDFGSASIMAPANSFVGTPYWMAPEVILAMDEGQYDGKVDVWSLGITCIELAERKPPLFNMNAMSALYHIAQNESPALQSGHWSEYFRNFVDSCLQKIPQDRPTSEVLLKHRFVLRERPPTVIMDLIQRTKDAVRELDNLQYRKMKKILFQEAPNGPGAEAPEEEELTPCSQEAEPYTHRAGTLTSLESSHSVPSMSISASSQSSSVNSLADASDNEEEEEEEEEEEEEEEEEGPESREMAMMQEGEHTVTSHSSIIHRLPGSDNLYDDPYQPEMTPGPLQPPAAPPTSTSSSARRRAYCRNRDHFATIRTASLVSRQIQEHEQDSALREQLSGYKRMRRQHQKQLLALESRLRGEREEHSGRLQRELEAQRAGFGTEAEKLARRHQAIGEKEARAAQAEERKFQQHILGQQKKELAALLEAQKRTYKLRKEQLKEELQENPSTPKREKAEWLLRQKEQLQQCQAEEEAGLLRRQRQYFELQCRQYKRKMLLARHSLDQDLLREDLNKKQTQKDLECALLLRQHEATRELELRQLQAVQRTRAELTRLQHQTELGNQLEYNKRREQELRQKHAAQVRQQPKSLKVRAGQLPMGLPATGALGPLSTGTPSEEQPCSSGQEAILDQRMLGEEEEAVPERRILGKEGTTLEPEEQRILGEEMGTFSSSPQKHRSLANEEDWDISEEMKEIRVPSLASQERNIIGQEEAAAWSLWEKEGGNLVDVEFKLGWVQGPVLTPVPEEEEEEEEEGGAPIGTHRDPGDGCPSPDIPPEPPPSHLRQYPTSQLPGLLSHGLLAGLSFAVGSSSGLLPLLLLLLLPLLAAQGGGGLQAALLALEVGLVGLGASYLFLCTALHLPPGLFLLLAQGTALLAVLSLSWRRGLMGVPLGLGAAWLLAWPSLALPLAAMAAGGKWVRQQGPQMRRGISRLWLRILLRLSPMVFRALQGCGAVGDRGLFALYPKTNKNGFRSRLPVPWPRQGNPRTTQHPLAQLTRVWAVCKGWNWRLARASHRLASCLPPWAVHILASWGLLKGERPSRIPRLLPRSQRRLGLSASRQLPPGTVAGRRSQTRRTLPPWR
Assay: Ex vivo KiNativ ATP/ADP probe competition in mouse cortical brain lysates
Assay type: binding

CCC(C)(O)C#Cc1cc2c(ccn2-c2ccnc(N)n2)cn1 (stereo not drawn) [BIIB-TTBK1i]
Percent Inhibition at 1μM (DVKAGNILLSEPGLVK, Lys2, ADP probe): 82.6% | Percent Inhibition at 1μM (DVKAGNILLSEPGLVK, Lys2, ATP probe): 93.2% | Percent Inhibition at 1μM (NSEVVAIKK, Lys1, ADP probe): 86.4%
